Assay results: patent US20050004014A1, “New compound” (FUJISAWA PHARMACEUTICAL CO., LTD., priority 2003, published 2005)

Each compound was assayed on Candida albicans FP-633. Details: FP-633, 24 h, pH 7.3.
Assay type: cell-based
Procedure: In vitro antimicrobial activity of the object compound of Examples 1, 2, 3 and 4 disclosed later was determined by MICS in mouse serum as described below. The MICS in mouse serum were determined by the microdilution method using ICR mouse serum buffered with 20 mM HEPES buffer (pH 7.3) as a test medium. Inoculum suspension of 10^6 cells/ml were prepared by a hemocytometric procedure and diluted to obtain an inoculum size of approximately 1.0×10^3 cells/ml. Microplates were incubated at 37° C. for 24 hours in 5% CO2. The MICS were defined as the lowest concentrations at which no visible growth was observed.

MIC, <0.15 µg/mL:
COc1cc(C[C@@H](O)[C@@H]2NC(=O)[C@@H]3C[C@@H](O)CN3C(=O)[C@H]([C@@H](C)O)NC(=O)[C@@H](NCc3ccc(-c4nnc(-c5ccc(N6CCC(OC)(C7CCCCC7)CC6)cc5)s4)cc3)C[C@@H](O)CNC(=O)[C@@H]3[C@@H](O)[C@@H](C)CN3C(=O)[C@H]([C@H](O)CCNC(CO)CO)NC2=O)ccc1O [Example 3]
COc1cc(C[C@@H](O)[C@@H]2NC(=O)[C@@H]3C[C@@H](O)CN3C(=O)[C@H]([C@@H](C)O)NC(=O)[C@@H](NCc3ccc(-c4nnc(-c5ccc(N6CCN(C7CCCCC7)CC6)cc5)s4)cc3)C[C@@H](O)CNC(=O)[C@@H]3[C@@H](O)[C@@H](C)CN3C(=O)[C@H]([C@H](O)CCNC(CO)CO)NC2=O)ccc1O [Example 4]
COc1cc(C[C@@H](O)[C@@H]2NC(=O)[C@@H]3C[C@@H](O)CN3C(=O)[C@H]([C@@H](C)O)NC(=O)[C@@H](NCc3ccc(-c4ccc(N5CCN([C@H]6CC[C@](OC)(C7CCCCC7)CC6)CC5)cc4)cc3)C[C@@H](O)CNC(=O)[C@@H]3[C@@H](O)[C@@H](C)CN3C(=O)[C@H]([C@H](O)CCN)NC2=O)ccc1O [Example 2]
COc1cc(C[C@@H](O)[C@@H]2NC(=O)[C@@H]3C[C@@H](O)CN3C(=O)[C@H]([C@@H](C)O)NC(=O)[C@@H](NCc3ccc(-c4nnc(-c5ccc(N6CCN([C@H]7CC[C@@H](C)CC7)CC6)cc5)s4)cc3)C[C@@H](O)CNC(=O)[C@@H]3[C@@H](O)[C@@H](C)CN3C(=O)[C@H]([C@H](O)CCN)NC2=O)ccc1O [Example 1]
